Paper PMC6697720, “Saturation of acyl chains converts cardiolipin from an antagonist to an activator of Toll-like receptor-4” (Cellular and Molecular Life Sciences: CMLS, 2019)

Tested on: primary BMDM cells
Experiment: TNF-α and IP-10 secretion in primary BMDMs incubated with CL or LPS alone
Assay type: cell-based, murine
Conditions: overnight
Procedure: Bone marrow was isolated from femurs and tibias of 10-week-old C57BL/6 mice killed by cervical dislocation. Briefly, bone marrow was flushed out with a syringe filled with DMEM, pelleted down, and resuspended and homogenized in complete medium (DMEM supplemented with 10% heat-inactivated FBS from South America, 2 mM glutamine, 50 U/mL penicillin, 50 μg/mL streptomycin, and 20% of supernatant taken from L929 cells). The cell suspension generated thereafter was then maintained in petri dishes for 7 days.
Primary BMDM cells were detached from petri dishes and seeded the day before the experiment in 96-well plates at 0.75 × 10^6 cells/mL (200 μL/well).
After stimulation, supernatants were collected, centrifuged, and assayed for cytokine secretion, while cells were assayed for viability.
TNF-α and IP-10 were quantified in cell supernatants using DuoSet ELISA kits from R&D Systems and human IL-1β using Instant ELISA™ Kit from Invitrogen, according to the manufacturer’s instructions. Absorbance was read with a BioTek Synergy HT Microplate Readers. […]
Primary BMDM cells were incubated overnight with medium (ctrl) or C14:0 CL at the indicated concentrations. TNF-α and IP-10 were measured by ELISA in collected supernatants. […]

`CCCCCCCCCCCCCC(=O)OC[C@H](COP(=O)(O)OCC(O)COP(=O)(O)OC[C@@H](COC(=O)CCCCCCCCCCCCC)OC(=O)CCCCCCCCCCCCC)OC(=O)CCCCCCCCCCCCC` (some centres unmarked) [C14:0 CL] was tested, and the IP-10 secretion was “induces” and the TNF-α secretion was “induces”.
